Data published in patent US9193665B2, “Synthesis of galanal compounds and analogues thereof” (Academia Sinica, priority 2013, dated 2015).

Experiments:
[1] = tested on: DIO mice; assay: Oral glucose tolerance test (OGTT) in diet-induced obese (DIO) mice; assay type: in vivo; settings: fasted DIO mice, compound by gavage 30 min before oral glucose 2 g/kg, glucose measured 0-90 min, FIG. 2A/2B
Method: DIO mice were male C56BL/6J-Narl mice at age of 13 to 15 weeks that have been fed with Western Diet (TestDiet 5342) for 6 to 8 weeks. DIO mice were fasted for five hours and then gavaged with a compound described herein (e.g., compounds RJ21 and RJ27) at indicated dose or with vehicle alone. Thirty minutes later, the mice were gavaged with glucose (2 g/kg body weight). The level of blood glucose was measured right before and every 30 minutes after the glucose challenge up to 90 minutes. The data are expressed as mean±SD and analyzed by Student's t-test using Prism (GraphPad).
The effect of the compounds to the homeostasis of blood glucose using oral glucose tolerance test (OGTT) was examined in this example. Fasted DIO mice were gavaged with RJ21, RJ27, or vehicle alone, and received an oral glucose challenge (2 g/kg body weight) 30 minutes later. The level of blood glucose was measured right before (0 minute) and every 30 minutes after the glucose gavage.

[2] = molecular target: T1, GLP-1 receptor (Rattus norvegicus, UniProt P32301); assay: GLP-1 dependent cAMP production from RIN-m5F cells (ELISA); assay type: cell-based; settings: 0.001 mg/ml compound
T1 construct: endogenous in cells; host or cells: RIN-m5F cells
T1 sequence (P32301 22-463): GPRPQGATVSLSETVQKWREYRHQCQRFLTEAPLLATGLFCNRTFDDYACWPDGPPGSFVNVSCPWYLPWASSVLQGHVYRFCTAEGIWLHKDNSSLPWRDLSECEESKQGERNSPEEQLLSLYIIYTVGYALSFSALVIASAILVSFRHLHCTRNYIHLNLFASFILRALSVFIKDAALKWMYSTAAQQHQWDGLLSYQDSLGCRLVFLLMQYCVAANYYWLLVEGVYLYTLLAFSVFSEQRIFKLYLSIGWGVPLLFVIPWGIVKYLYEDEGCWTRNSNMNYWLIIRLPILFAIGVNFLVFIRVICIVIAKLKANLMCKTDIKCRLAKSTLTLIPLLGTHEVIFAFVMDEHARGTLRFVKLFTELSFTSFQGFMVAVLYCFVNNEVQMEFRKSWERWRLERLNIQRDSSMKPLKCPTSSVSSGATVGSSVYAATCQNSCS
Method: The cells were cultured in 37° C. with 5% CO2 for 42 hours prior to cAMP production experiment.
The stimulation process was terminated by replacing the stimulation medium with 0.05 ml per well of ice-cold absolute ethanol, and further incubated at −20° C. for 20 min. The cellular cAMP was extracted with 0.085 ml PBS after the ethanol in the wells were evaporated in a vacuum desiccator for 35 min.
The total cAMP from each well was determined by ELISA method according the procedure recommended by the supplier.

Row | Compound | blood glucose level versus vehicle-treated mice [1] | potentiation of the effect of GLP-1 on cAMP production (factor) ([2]; 30 nM GLP-1, RIN-m5F cells, 15 min) | cAMP generation by the compound by itself (agonist effect) ([2]; RIN-m5F cells, little cAMP response at 3 nM GLP-1)
1 | COC(=O)C1=CC[C@H]2[C@@](C=O)(CCC3C(C)(C)CCC[C@@]32C)[C@H](O)C1 (stereo partly shown) [RJ27] | significantly lower |  | 
2 | galanal B [RJ21] | significantly lower | 2 | did not affect
